From patent publication US12534474B2, “Dihydrofuropyridine derivatives as rho-kinase inhibitors” (CHIESI FARMACEUTICI S.P.A., priority 2020, dated 2026)

Key:
Assay type in all cases: biochemical
[1] = molecular target: PKA (Homo sapiens, UniProt P17612); experiment: In vitro inhibitory activity assay for PKA, ADP-Glo, reported as selectivity ratio vs ROCK2; settings: Ki for PKA divided by Ki of ROCK2 (Method B)
Experimental: In Vitro Inhibitory Activity Assay Description for PKA
The effectiveness of compounds of the present invention to inhibit PKA activity can be determined in a 10 μL assay containing 40 mM Tris pH7.5, 20 mM MgCl2 0.1 mg/mL BSA, 50 μM DTT and 260 μM peptide substrate (kemptide) using an ADP-Glo kit (Promega). Compounds were dissolved in DMSO such that the final concentration of DMSO was 1% in the assay. All reactions/incubations are performed at 25° C. Compound and PKA enzyme (6 μL) were mixed and incubated for 30 min. Reactions were initiated by addition of ATP (4 μL) such that the final concentration of ATP in the assay was 10 μM. After a 30 minute incubation 10 μL of ADP-Glo Reagent was added and after a further 1 hour incubation 20 μL of Kinase Detection Buffer was added and the mixture incubated for a further 45 minutes. The luminescent signal was measured on a luminometer. […] Compounds were tested in dose-response format and the inhibition of kinase activity was calculated at each concentration of compound. To determine the IC50 (concentration of compound required to inhibit 50% of the enzyme activity) data were fit to a plot of % inhibition vs Log10 compound concentration using a sigmoidal fit with a variable slope and fixing the maximum to 100% and the minimum to 0%. To determine the Ki values the Cheng-Prusoff equation was utilized (Ki=IC50/(1+[S]/Km).
In vitro inhibitory activities for PKA were reported as selectivity ratio vs. ROCK2. Selectivity ratio PKA/ROCK2 was calculated by dividing the Ki value for PKA by Ki value of ROCK2 (Method B) and reported into table 1.

[2] = molecular target: ROCK1 (Homo sapiens, UniProt Q13464); experiment: In vitro Rho kinase inhibitory activity assay, ADP-Glo, Method B (ATP 200 μM); settings: read-out: Method B ROCK 1 (Ki)
Sequence of ROCK1 (Q13464 whole entry): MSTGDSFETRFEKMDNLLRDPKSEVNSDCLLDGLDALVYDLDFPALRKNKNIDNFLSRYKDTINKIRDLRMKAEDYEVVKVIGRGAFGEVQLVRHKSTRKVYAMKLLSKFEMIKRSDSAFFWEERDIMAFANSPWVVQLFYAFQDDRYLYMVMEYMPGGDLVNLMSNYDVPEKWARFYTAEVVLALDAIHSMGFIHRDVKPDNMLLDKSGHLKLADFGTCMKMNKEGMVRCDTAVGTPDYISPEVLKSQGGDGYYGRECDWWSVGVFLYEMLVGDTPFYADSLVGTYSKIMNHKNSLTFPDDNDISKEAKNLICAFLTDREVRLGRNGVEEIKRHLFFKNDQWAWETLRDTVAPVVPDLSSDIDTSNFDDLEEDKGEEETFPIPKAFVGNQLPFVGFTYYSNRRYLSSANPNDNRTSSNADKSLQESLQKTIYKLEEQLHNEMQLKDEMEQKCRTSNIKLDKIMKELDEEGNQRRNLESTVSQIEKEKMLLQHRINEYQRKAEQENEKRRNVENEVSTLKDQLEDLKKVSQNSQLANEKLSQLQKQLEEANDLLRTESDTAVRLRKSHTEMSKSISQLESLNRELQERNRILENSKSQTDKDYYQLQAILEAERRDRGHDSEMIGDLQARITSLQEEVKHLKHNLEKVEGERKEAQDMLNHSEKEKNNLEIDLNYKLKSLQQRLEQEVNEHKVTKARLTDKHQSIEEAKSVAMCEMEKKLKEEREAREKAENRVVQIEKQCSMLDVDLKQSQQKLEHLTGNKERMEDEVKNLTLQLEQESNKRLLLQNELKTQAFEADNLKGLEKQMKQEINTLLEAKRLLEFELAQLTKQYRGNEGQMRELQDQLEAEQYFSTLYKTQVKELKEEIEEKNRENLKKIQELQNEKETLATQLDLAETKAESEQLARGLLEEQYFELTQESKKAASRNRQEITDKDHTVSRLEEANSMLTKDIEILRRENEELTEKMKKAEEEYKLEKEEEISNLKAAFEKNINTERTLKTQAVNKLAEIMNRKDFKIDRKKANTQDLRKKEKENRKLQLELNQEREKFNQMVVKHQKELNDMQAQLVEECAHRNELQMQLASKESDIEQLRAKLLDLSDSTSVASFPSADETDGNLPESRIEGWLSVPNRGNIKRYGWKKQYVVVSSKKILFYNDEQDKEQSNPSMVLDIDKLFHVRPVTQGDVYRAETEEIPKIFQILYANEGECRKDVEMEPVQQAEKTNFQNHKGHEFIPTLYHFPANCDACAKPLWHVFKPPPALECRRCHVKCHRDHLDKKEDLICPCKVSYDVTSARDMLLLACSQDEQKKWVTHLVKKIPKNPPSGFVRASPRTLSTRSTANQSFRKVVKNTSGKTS
Experimental: (§1) In Vitro Inhibitory Activity Assay Description (Method B)
(§2) The effectiveness of compounds of the present invention to inhibit Rho kinase activity can be determined in a 10 μL assay containing 40 mM Tris pH7.5, 20 mM MgCl2 0.1 mg/mL BSA, 50 μM DTT and 2.5 μM peptide substrate (Myelin Basic Protein) using an ADP-Glo kit (Promega). Compounds were dissolved in DMSO such that the final concentration of DMSO was 1% in the assay. All reactions/incubations are performed at 25° C. Compound (2 ul) and either Rho kinase 1 or 2 (4 μL) were mixed and incubated for 30 min. Reactions were initiated by addition of ATP (4 μL) such that the final concentration of ATP in the assay was 200 μM. After a 1 hour incubation 10 μL of ADP-Glo Reagent was added and after a further 45 minute incubation 20 ul of Kinase Detection Buffer was added and the mixture incubated for a further 30 minutes. The luminescent signal was measured on a luminometer. […] Compounds were tested in dose-response format and the inhibition of kinase activity was calculated at each concentration of compound. To determine the IC50 (concentration of compound required to inhibit 50% of the enzyme activity) data were fit to a plot of % inhibition vs Log 10 compound concentration using a sigmoidal fit with a variable slope and fixing the maximum to 100% and the minimum to 0%. To determine the Ki values the Cheng-Prusoff equation was utilized (Ki=IC50/(1+[S]/Km).

[3] = molecular target: ROCK2 (Homo sapiens, UniProt O75116); experiment: as above; settings: read-out: Method B ROCK 2 (Ki)
Sequence of ROCK2 (O75116 whole entry): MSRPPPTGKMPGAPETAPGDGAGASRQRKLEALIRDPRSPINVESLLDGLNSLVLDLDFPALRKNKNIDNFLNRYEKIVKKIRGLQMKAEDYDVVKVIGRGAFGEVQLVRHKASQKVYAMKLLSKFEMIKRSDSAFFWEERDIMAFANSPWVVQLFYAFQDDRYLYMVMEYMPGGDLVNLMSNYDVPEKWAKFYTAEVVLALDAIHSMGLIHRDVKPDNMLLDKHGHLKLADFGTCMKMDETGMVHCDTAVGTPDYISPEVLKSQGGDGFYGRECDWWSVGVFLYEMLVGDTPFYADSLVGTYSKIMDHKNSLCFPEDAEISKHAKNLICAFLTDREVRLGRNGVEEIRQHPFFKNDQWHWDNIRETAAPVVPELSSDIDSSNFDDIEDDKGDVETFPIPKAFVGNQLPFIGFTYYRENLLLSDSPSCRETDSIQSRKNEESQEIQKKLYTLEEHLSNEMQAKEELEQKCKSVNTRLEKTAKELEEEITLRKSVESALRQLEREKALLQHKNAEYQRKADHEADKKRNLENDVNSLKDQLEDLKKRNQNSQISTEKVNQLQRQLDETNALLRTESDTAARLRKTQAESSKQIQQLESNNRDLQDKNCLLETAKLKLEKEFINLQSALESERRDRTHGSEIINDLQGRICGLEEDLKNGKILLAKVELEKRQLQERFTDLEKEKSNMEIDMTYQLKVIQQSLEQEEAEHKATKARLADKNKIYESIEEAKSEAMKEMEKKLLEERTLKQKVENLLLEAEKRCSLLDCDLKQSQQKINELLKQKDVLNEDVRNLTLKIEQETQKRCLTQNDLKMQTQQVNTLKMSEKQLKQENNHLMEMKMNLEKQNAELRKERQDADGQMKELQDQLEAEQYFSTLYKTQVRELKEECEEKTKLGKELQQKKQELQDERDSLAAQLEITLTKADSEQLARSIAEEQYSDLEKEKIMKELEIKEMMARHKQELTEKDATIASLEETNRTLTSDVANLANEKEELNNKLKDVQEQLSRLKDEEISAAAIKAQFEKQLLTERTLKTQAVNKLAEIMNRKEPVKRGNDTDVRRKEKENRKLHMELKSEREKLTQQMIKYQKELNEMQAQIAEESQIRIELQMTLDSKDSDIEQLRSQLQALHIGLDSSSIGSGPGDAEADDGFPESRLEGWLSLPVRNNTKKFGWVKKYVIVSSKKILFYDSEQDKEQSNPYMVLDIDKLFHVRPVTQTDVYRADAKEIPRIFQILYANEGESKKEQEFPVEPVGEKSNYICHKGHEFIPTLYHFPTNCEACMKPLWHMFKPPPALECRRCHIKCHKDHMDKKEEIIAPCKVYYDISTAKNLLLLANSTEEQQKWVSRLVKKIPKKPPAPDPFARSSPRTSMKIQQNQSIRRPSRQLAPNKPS
Experimental: as §1, §2

Row | Ratio (PKA/ROCK2) [1] | Ki [2] | Ki [3] | Compound
1 | *** (ratio≥10) | ≤ 3 nM | ≤ 3 nM | O=C(NC1CC2CN(C3COC3)CC2C1)c1cccc(CNc2ncc(-c3ccncc3)c3c2CCO3)c1 (single isomer, unassigned) [Example 43a, N-(2-(oxetan-3-yl)octahydrocyclopenta[c]pyrrol-5-yl)-3-(((7-(pyridin-4-yl)-2,3-dihydrofuro[3,2-c]pyridin-4-yl)amino)methyl)benzamide]
2 | *** (ratio≥10) | ≤ 3 nM | ≤ 3 nM | O=C(NC1CC2CN(C3COC3)CC2C1)c1cccc(CNc2ncc(-c3ccncc3)c3c2CCO3)c1 (single isomer, unassigned) [Example 43b, N-(2-(oxetan-3-yl)octahydrocyclopenta[c]pyrrol-5-yl)-3-(((7-(pyridin-4-yl)-2,3-dihydrofuro[3,2-c]pyridin-4-yl)amino)methyl)benzamide]
3 | *** (ratio≥10) | 3 to 30 nM | ≤ 3 nM | Cc1cc(CNC(=O)c2cccc(CNc3ncc(-c4ccncc4)c4c3CCO4)c2)no1 [Example 2, N-((5-methylisoxazol-3-yl)methyl)-3-(((7-(pyridin-4-yl)-2,3-dihydrofuro[3,2-c]pyridin-4-yl)amino)methyl)benzamide]
4 | *** (ratio≥10) | 3 to 30 nM | ≤ 3 nM | Cn1cnc(CNC(=O)c2cccc(CNc3ncc(-c4ccncc4)c4c3CCO4)c2)c1 [Example 3, N-((1-methyl-1H-imidazol-4-yl)methyl)-3-(((7-(pyridin-4-yl)-2,3-dihydrofuro[3,2-c]pyridin-4-yl)amino)methyl)benzamide]
5 | *** (ratio≥10) | 3 to 30 nM | 3 to 30 nM | O=C(NCCCF)c1cccc(CNc2ncc(-c3ccncc3)c3c2CCO3)c1 [Example 4, N-(3-fluoropropyl)-3-(((7-(pyridin-4-yl)-2,3-dihydrofuro[3,2-c]pyridin-4-yl)amino)methyl)benzamide]
6 | *** (ratio≥10) | 3 to 30 nM | 3 to 30 nM | O=C(NCc1cncnc1)c1cccc(CNc2ncc(-c3ccncc3)c3c2CCO3)c1 [Example 5, 3-(((7-(pyridin-4-yl)-2,3-dihydrofuro[3,2-c]pyridin-4-yl)amino)methyl)-N-(pyrimidin-5-ylmethyl)benzamide]
7 | *** (ratio≥10) | 3 to 30 nM | ≤ 3 nM | O=C(NCc1ccon1)c1cccc(CNc2ncc(-c3ccncc3)c3c2CCO3)c1 [Example 6, N-(isoxazol-3-ylmethyl)-3-(((7-(pyridin-4-yl)-2,3-dihydrofuro[3,2-c]pyridin-4-yl)amino)methyl)benzamide]
8 | *** (ratio≥10) | 3 to 30 nM | 3 to 30 nM | O=C(NC1CCOCC1)c1cccc(CNc2ncc(-c3ccncc3)c3c2CCO3)c1 [Example 7, 3-(((7-(pyridin-4-yl)-2,3-dihydrofuro[3,2-c]pyridin-4-yl)amino)methyl)-N-(tetrahydro-2H-pyran-4-yl)benzamide]
9 | *** (ratio≥10) | 3 to 30 nM | ≤ 3 nM | O=C(NCc1cocn1)c1cccc(CNc2ncc(-c3ccncc3)c3c2CCO3)c1 [Example 8, N-(oxazol-4-ylmethyl)-3-(((7-(pyridin-4-yl)-2,3-dihydrofuro[3,2-c]pyridin-4-yl)amino)methyl)benzamide]
10 | *** (ratio≥10) | 3 to 30 nM | 3 to 30 nM | O=C(NCC1(O)CC1)c1cccc(CNc2ncc(-c3ccncc3)c3c2CCO3)c1 [Example 9, N-((1-hydroxycyclopropyl)methyl)-3-(((7-(pyridin-4-yl)-2,3-dihydrofuro[3,2-c]pyridin-4-yl)amino)methyl)benzamide]
11 | *** (ratio≥10) | ≤ 3 nM | ≤ 3 nM | CN1CCOC(CNC(=O)c2cccc(CNc3ncc(-c4ccncc4)c4c3CCO4)c2)C1 (centres unmarked) [Example 10, N-((4-methylmorpholin-2-yl)methyl)-3-(((7-(pyridin-4-yl)-2,3-dihydrofuro[3,2-c]pyridin-4-yl)amino)methyl)benzamide]
12 | *** (ratio≥10) | ≤ 3 nM | ≤ 3 nM | O=C(Nc1ccncc1)c1cccc(CNc2ncc(-c3ccncc3)c3c2CCO3)c1 [Example 11, N-(pyridin-4-yl)-3-(((7-(pyridin-4-yl)-2,3-dihydrofuro[3,2-c]pyridin-4-yl)amino)methyl)benzamide]
13 | ** (5≤ratio<10) | ≤ 3 nM | 3 to 30 nM | O=C(NCC1CC1)c1cccc(CNc2ncc(-c3ccncc3)c3c2CCO3)c1 [Example 12, N-(cyclopropylmethyl)-3-(((7-(pyridin-4-yl)-2,3-dihydrofuro[3,2-c]pyridin-4-yl)amino)methyl)benzamide]
14 | *** (ratio≥10) | 3 to 30 nM | ≤ 3 nM | O=C(NC1CC(CO)C1)c1cccc(CNc2ncc(-c3ccncc3)c3c2CCO3)c1 (centres unmarked) [Example 13, N-(3-(hydroxymethyl)cyclobutyl)-3-(((7-(pyridin-4-yl)-2,3-dihydrofuro[3,2-c]pyridin-4-yl)amino)methyl)benzamide]
15 | *** (ratio≥10) | ≤ 3 nM | ≤ 3 nM | COc1ccc(NC(=O)c2cccc(CNc3ncc(-c4ccncc4)c4c3CCO4)c2)nc1 [Example 14, N-(5-methoxypyridin-2-yl)-3-(((7-(pyridin-4-yl)-2,3-dihydrofuro[3,2-c]pyridin-4-yl)amino)methyl)benzamide]
16 | *** (ratio≥10) | ≤ 3 nM | ≤ 3 nM | CC(C)(C)N1CC(CNC(=O)c2cccc(CNc3ncc(-c4ccncc4)c4c3CCO4)c2)CC1=O (centres unmarked) [Example 15, N-((1-(tert-butyl)-5-oxopyrrolidin-3-yl)methyl)-3-(((7-(pyridin-4-yl)-2,3-dihydrofuro[3,2-c]pyridin-4-yl)amino)methyl)benzamide]
17 | *** (ratio≥10) | 3 to 30 nM | 3 to 30 nM | O=C(NC1CC1)c1cccc(CNc2ncc(-c3ccncc3)c3c2CCO3)c1 [Example 16, N-cyclopropyl-3-(((7-(pyridin-4-yl)-2,3-dihydrofuro[3,2-c]pyridin-4-yl)amino)methyl)benzamide]
18 | *** (ratio≥10) | 3 to 30 nM | 3 to 30 nM | O=C(Nc1cccnn1)c1cccc(CNc2ncc(-c3ccncc3)c3c2CCO3)c1 [Example 17, N-(pyridazin-3-yl)-3-(((7-(pyridin-4-yl)-2,3-dihydrofuro[3,2-c]pyridin-4-yl)amino)methyl)benzamide]
19 | *** (ratio≥10) | ≤ 3 nM | ≤ 3 nM | O=C(Nc1ccncn1)c1cccc(CNc2ncc(-c3ccncc3)c3c2CCO3)c1 [Example 18, 3-(((7-(pyridin-4-yl)-2,3-dihydrofuro[3,2-c]pyridin-4-yl)amino)methyl)-N-(pyrimidin-4-yl)benzamide]
20 | *** (ratio≥10) | 3 to 30 nM | ≤ 3 nM | Cn1ccc(CNC(=O)c2cccc(CNc3ncc(-c4ccncc4)c4c3CCO4)c2)n1 [Example 19, N-((1-methyl-1H-pyrazol-3-yl)methyl)-3-(((7-(pyridin-4-yl)-2,3-dihydrofuro[3,2-c]pyridin-4-yl)amino)methyl)benzamide]
21 | *** (ratio≥10) | ≤ 3 nM | ≤ 3 nM | COc1cc(NC(=O)c2cccc(CNc3ncc(-c4ccncc4)c4c3CCO4)c2)ncn1 [Example 31, N-(6-Methoxypyrimidin-4-yl)-3-(((7-(pyridin-4-yl)-2,3-dihydrofuro[3,2-c]pyridin-4-yl)amino)methyl)benzamide]
22 | – | 3 to 30 nM | 3 to 30 nM | CNC(=O)c1cccc(CNc2ncc(-c3ccncc3F)c3c2CCO3)c1 [Example 45, 3-(((7-(3-Fluoropyridin-4-yl)-2,3-dihydrofuro[3,2-c]pyridin-4-yl)amino)methyl)-N-methylbenzamide]
